Assay results as given in ChEMBL document CHEMBL1136837, “Unified QSAR approach to antimicrobials. 4. Multi-target QSAR modeling and comparative multi-distance study of the giant components of antiviral drug-drug complex networks” (Bioorg Med Chem, 2009).

Columns and labels:
Human betaherpesvirus 6 [1] = test: Antiviral activity against Human herpesvirus 6A; format: functional, organism-based
Human betaherpesvirus 6 [2] = test: Antiviral activity against Human herpesvirus 6B; format: functional, organism-based
Human adenovirus 2 = test: Antiviral activity against Human adenovirus 2; format: functional, organism-based; conditions: Human mastadenovirus C
Camelpox virus = test: Antiviral activity against Camelpox virus; format: functional, organism-based
Cowpox virus = test: Antiviral activity against Cowpox virus; format: functional, organism-based
Influenza B virus = test: Antiviral activity against influenza B virus; format: functional, organism-based
Influenza A virus = test: Antiviral activity against influenza H1N1 virus; format: functional, organism-based
H2N2 subtype = test: Antiviral activity against influenza H2N2 virus; format: functional, organism-based; conditions: Influenza A virus
Influenza A virus H3N2 = test: Antiviral activity against influenza H3N2 virus; format: functional, organism-based, H3N2 subtype
Monkeypox virus = test: Antiviral activity against Monkeypox virus; format: functional, organism-based
Vaccinia virus = test: Antiviral activity against Vaccinia virus; format: functional, organism-based, Orthopoxvirus vaccinia
Human gammaherpesvirus 4 = test: Antiviral activity against Epstein-Barr virus; format: functional, organism-based
Human alphaherpesvirus 1 = test: Antiviral activity against Herpes simplex virus 1; format: functional, organism-based; conditions: Human alphaherpesvirus 1
Human alphaherpesvirus 2 = test: Antiviral activity against Herpes simplex virus 2; format: functional, organism-based; conditions: Human alphaherpesvirus 2
Human betaherpesvirus 5 = test: Antiviral activity against Human cytomegalovirus; format: functional, organism-based; conditions: Human betaherpesvirus 5
Human gammaherpesvirus 8 = test: Antiviral activity against Human herpesvirus 8; format: functional, organism-based
Human alphaherpesvirus 3 = test: Antiviral activity against Varicella zoster virus; format: functional, organism-based
Human respirovirus 1 = test: Antiviral activity against Human parainfluenza virus 1; format: functional, organism-based
[3] = tested on: Human parainfluenza virus 2; test: Antiviral activity against Human parainfluenza virus 2; format: functional, organism-based; conditions: Human orthorubulavirus 2
Human respirovirus 3 = test: Antiviral activity against Human parainfluenza virus 3; format: functional, organism-based
Respirovirus muris = test: Antiviral activity against Sendai virus; format: functional, organism-based
Hepatitis C virus = test: Antiviral activity against Hepatitis C virus c; format: functional, organism-based, Hepacivirus hominis
[4] = tested on: Human immunodeficiency virus 1; test: Antiviral activity against HIV1; format: functional, organism-based
Human rhinovirus sp. = test: Antiviral activity against Human rhinovirus; format: functional, organism-based
[5] = tested on: unidentified influenza virus; test: Antiviral activity against influenza virus; format: functional, organism-based
Enterovirus C = test: Antiviral activity against Poliovirus; format: functional, organism-based
H5N1 subtype = test: Antiviral activity against influenza H5N1 virus; format: functional, organism-based; conditions: Influenza A virus
Influenza C virus = test: Antiviral activity against Influenza C virus; format: functional, organism-based
Coxsackievirus = test: Antiviral activity against Coxsackievirus; format: functional, organism-based
Echovirus = test: Antiviral activity against Echovirus; format: functional, organism-based
Enterovirus = test: Antiviral activity against Enterovirus; format: functional, organism-based
Simplexvirus = test: Antiviral activity against Herpes simplex virus; format: functional, organism-based

## O[C@@H]1[C@H](O)[C@H](O)CO[C@H]1n1c(Br)nc2cc(Cl)c(Cl)cc21
Human betaherpesvirus 6 [1]
  IC50: 125 µM
Human betaherpesvirus 6 [2]
  IC50: 95 µM

## NC(=O)c1ncn([C@@H]2O[C@H](CO)[C@@H](O)[C@H]2O)n1 [RIBAVIRIN]
Human adenovirus 2
  IC50: 100 µM
Camelpox virus
  IC50: 215 µM
Cowpox virus
  IC50: 410 µM
Influenza B virus
  IC50: 19 µM
Influenza A virus
  IC50: 7.7 µM
H2N2 subtype
  IC50: 13.8 µM
Influenza A virus H3N2
  IC50: 20 µM
Monkeypox virus
  IC50: 145 µM
Vaccinia virus; Orthopoxvirus vaccinia
  IC50: 281 µM

## Nc1ccn(/C=C2/CC2(CO)CO)c(=O)n1
Human gammaherpesvirus 4
  IC50: 45 µM
Human alphaherpesvirus 1
  IC50: 448 µM
Human alphaherpesvirus 2
  IC50: 448 µM
Human betaherpesvirus 5
  IC50: 14 µM
Human gammaherpesvirus 8
  IC50: 197 µM
Human alphaherpesvirus 3
  IC50: 448 µM

## C/C=C\[C@@H]1C[C@H](C(=O)O)N[C@H]1[C@@H](NC(C)=O)[C@](C)(CCC)OC
Human respirovirus 1
  IC50: 14.1 µM

## CCC(CC)O[C@@H]1C=C(C(=O)O)C[C@H](N)[C@H]1NC(C)=O [OSELTAMIVIR CARBOXYLATE]
Influenza B virus
  IC50: 0.015 µM
Influenza A virus
  IC50: 0.0039 µM
H2N2 subtype
  IC50: 0.00017 µM
Influenza A virus H3N2
  IC50: 0.0006 µM

## Nc1ccn(C[C@H]2COP(=O)(O)CO2)c(=O)n1 [CYCLIC CIDOFOVIR]
Cowpox virus
  IC50: 51 µM
Monkeypox virus
  IC50: 760 µM
Vaccinia virus; Orthopoxvirus vaccinia
  IC50: 21 µM

## CC(C)C(=O)N[C@H]1[C@H]([C@H](O)[C@H](O)CO)OC(C(=O)O)=C[C@@H]1NS(=O)(=O)C(Cl)Cl
Human respirovirus 1
  IC50: 1.2 µM
[3]
  IC50: 1.9 µM
Human respirovirus 3
  IC50: 2 µM
Respirovirus muris
  IC50: 1.8 µM

## CC(C)C(=O)N[C@H]1[C@H]([C@H](O)[C@H](O)CO)OC(C(=O)O)=C[C@@H]1N=[N+]=[N-]
[3]
  IC50: 2.2 µM
Respirovirus muris
  IC50: 0.1 µM

## Nc1nc2c(ncn2/C=C2\CC2(CO)CO)c(=O)[nH]1
Human gammaherpesvirus 4
  IC50: 119 µM
Human alphaherpesvirus 1
  IC50: 380 µM
Human alphaherpesvirus 2
  IC50: 380 µM
Human betaherpesvirus 5
  IC50: 123 µM
Human betaherpesvirus 6 [1]
  IC50: 116 µM
Human betaherpesvirus 6 [2]
  IC50: 43 µM
Human gammaherpesvirus 8
  IC50: 190 µM
Human alphaherpesvirus 3
  IC50: 380 µM

## Nc1nc(N)c2ncn(/C=C3\CC3(CO)CO)c2n1
Human alphaherpesvirus 1
  IC50: 381 µM
Human alphaherpesvirus 2
  IC50: 381 µM
Human betaherpesvirus 5
  IC50: 3.3 µM
Human gammaherpesvirus 8
  IC50: 165 µM
Human alphaherpesvirus 3
  IC50: 39 µM

## C=C[C@@H]1C[C@]1(NC(=O)[C@@H]1C[C@@H](Oc2cc(-c3ccccc3)nc3cc(OC)ccc23)CN1C(=O)[C@H](CC(C)C)NC(=O)OC(C)(C)C)C(=O)O
Hepatitis C virus
  IC50: 0.492 µM

## O=c1n(Cc2nc3ccccc3n2CCCCO)c2cnccc2n1C1CC1
[4]
  IC50: 200 µM
Human rhinovirus sp.
  IC50: 200 µM
[5]
  IC50: 200 µM
Enterovirus C
  IC50: 200 µM
Respirovirus muris
  IC50: 25 µM

## CC(=O)N[C@H]1[C@H]([C@H](O)[C@H](O)CO)OC(C(=O)O)=C[C@@H]1NC(=N)N [ZANAMIVIR]
H2N2 subtype
  IC50: 0.76 µM
Influenza A virus H3N2
  IC50: 0.68 µM
H5N1 subtype
  IC50: 0.22 µM

## CCOC(=O)C1=C[C@@H](OC(CC)CC)[C@H](NC(C)=O)[C@@H](N)C1 [OSELTAMIVIR]
Influenza B virus
  IC50: 2.1 µM
Influenza A virus
  IC50: 2.5 µM
H2N2 subtype
  IC50: 1.45 µM
Influenza A virus H3N2
  IC50: 0.26 µM
H5N1 subtype
  IC50: 34 µM
[5]
  IC50: 45 µM

## NC(=O)c1nc(F)cnc1O
Influenza B virus
  IC50: 0.089 µM
Influenza C virus
  IC50: 0.044 µM
Influenza A virus
  IC50: 0.16 µM
H2N2 subtype
  IC50: 0.048 µM

## Nc1ncnc2c1ncn2/C=C1/CC1(CO)CO
Human gammaherpesvirus 4
  IC50: 166 µM
Human alphaherpesvirus 1
  IC50: 404 µM
Human alphaherpesvirus 2
  IC50: 404 µM
Human betaherpesvirus 5
  IC50: 12 µM
Human gammaherpesvirus 8
  IC50: 57 µM
Human alphaherpesvirus 3
  IC50: 404 µM

## CCO/N=C/c1ccc(OCCC2CCN(c3ccc(Cl)nn3)CC2)cc1
Coxsackievirus
  IC50: 0.825 µM
Echovirus
  IC50: 0.067 µM
Enterovirus
  IC50: 0.001 µM
Human rhinovirus sp.
  IC50: 0.026 µM

## Nc1ccn(C[C@@H](CO)OCP(=O)(O)O)c(=O)n1 (stereo in doubt; form 1) [CIDOFOVIR]
Human adenovirus 2
  IC50: 3.1 µM
Simplexvirus
  IC50: 3.3 µM
Cowpox virus
  IC50: 48 µM
Human betaherpesvirus 5
  IC50: 0.06 µM
Monkeypox virus
  IC50: 505 µM
Vaccinia virus
  IC50: 23 µM

## OC[C@H]1O[C@@H](n2c(Br)nc3cc(Cl)c(Cl)cc32)[C@H](O)[C@@H]1O
Human betaherpesvirus 6 [1]
  IC50: 125 µM
Human betaherpesvirus 6 [2]
  IC50: 125 µM

## CC(C)Nc1nc2cc(Cl)c(Cl)cc2n1[C@H]1O[C@@H](CO)[C@H](O)[C@@H]1O [MARIBAVIR]
Human betaherpesvirus 6 [1]
  IC50: 125 µM
Human betaherpesvirus 6 [2]
  IC50: 106 µM
